Reference: ChEMBL document CHEMBL4706474, “Tetrahydro-2-naphthyl and 2-Indanyl Triazolopyrimidines Targeting Plasmodium falciparum Dihydroorotate Dehydrogenase Display Potent and Selective Antimalarial Activity” (J Med Chem, 2016)
In brackets after ≈: the same amount, converted by molar mass. Activity calls are given as the source filed them. The calls are words filed in the database; no cut-off is given here.

Columns and labels:
[1] = target: Cytochrome P450 2C19 (Homo sapiens, UniProt P33261); assay: Inhibition of CYP2C19 in human liver microsomes using isoform-specific probe substrates in presence of NADPH-generating system by LC-MS analysis; format: ADME; details: read-out: IC50
[2] = target: Cytochrome P450 2C9 (Homo sapiens, UniProt P11712); assay: Inhibition of CYP2C9 in human liver microsomes using isoform-specific probe substrates in presence of NADPH-generating system by LC-MS analysis; format: ADME
[3] = Inhibition of N-terminal His6-tagged Plasmodium falciparum DHODH expressed in Escherichia coli BL21 using L-DHO as substrate and CoQ as co-substrate by DCIP dye based spectrophotometric assay
[4] = Inhibition of N-terminal His6-tagged Plasmodium vivax DHODH expressed in Escherichia coli BL21 using L-DHO as substrate and CoQ as co-substrate by DCIP dye based spectrophotometric assay
[5] = target: Dihydroorotate dehydrogenase (quinone), mitochondrial (Homo sapiens, UniProt Q02127); assay: Inhibition of N-terminal His6-tagged human DHODH expressed in Escherichia coli BL21 using L-DHO as substrate and CoQ as co-substrate by DCIP dye based spectrophotometric assay
[6] = tested on: Plasmodium falciparum; assay: Antiplasmodial activity against Plasmodium falciparum 3D7 infected in RBC assessed as reduction in parasitemia incubated for 72 hrs by SYBR green dye-based assay; format: functional, organism-based; details: Plasmodium falciparum, 3D7, Erythrocyte, 72 h
[7] = target: Dihydroorotate dehydrogenase (quinone), mitochondrial (Rattus norvegicus, UniProt Q63707); assay: Inhibition of N-terminal His6-tagged rat DHODH expressed in Escherichia coli BL21 expressed in Escherichia coli BL21 using L-DHO as substrate and CoQ as co-substrate by DCIP dye based spectrophotometric assay
[8] = Inhibition of N-terminal His6-tagged dog DHODH expressed in Escherichia coli BL21 using L-DHO as substrate and CoQ as co-substrate by DCIP dye based spectrophotometric assay; set-up: species or system Canis lupus familiaris
[9] = Lipophilicity, logD of the compound at pH 7.4; format: physicochemical; details: buffer
[10] = Kinetic solubility of compound in phosphate buffer at pH 6.5 measured after 30 mins by HPLC-UV based analysis; format: physicochemical; details: phosphate buffer, pH 6.5, read-out: Kinetic_solubility
[11] = Protein binding in human plasma assessed as bound fraction by LC-MS analysis based ultracentrifugation assay; format: ADME, cell-free; details: read-out: PPB (converted)
[12] = Protein binding in rat plasma assessed as bound fraction by LC-MS analysis based ultracentrifugation assay; format: ADME, cell-free; details: read-out: PPB (converted)
[13] = Protein binding in mouse plasma assessed as bound fraction by LC-MS analysis based ultracentrifugation assay; format: ADME, cell-free; details: read-out: PPB (converted)
[14] = Intrinsic clearance in human pooled liver microsomes assessed per mg protein at 1 uM by LC-MS analysis; format: ADME, Microsome; details: microsomes, 1 µM
[15] = Intrinsic clearance in rat liver microsomes assessed per mg protein at 1 uM by LC-MS analysis; format: ADME, Microsome; details: microsomes, 1 µM
[16] = Intrinsic clearance in mouse liver microsomes at 1 uM by LC-MS analysis; format: ADME, Microsome
[17] = Solubility of compound in 0.1 N HCl measured after 5 to 6 hrs by HPLC-UV based analysis; format: physicochemical; details: buffer; time 5-6 hrs
[18] = target: T1, Cytochrome P450 1A2 (Homo sapiens, UniProt P05177); assay: Inhibition of CYP1A2 in human liver microsomes using isoform-specific probe substrate in presence of NADPH-generating system by LC-MS analysis; format: ADME
T1 sequence (P05177 whole entry): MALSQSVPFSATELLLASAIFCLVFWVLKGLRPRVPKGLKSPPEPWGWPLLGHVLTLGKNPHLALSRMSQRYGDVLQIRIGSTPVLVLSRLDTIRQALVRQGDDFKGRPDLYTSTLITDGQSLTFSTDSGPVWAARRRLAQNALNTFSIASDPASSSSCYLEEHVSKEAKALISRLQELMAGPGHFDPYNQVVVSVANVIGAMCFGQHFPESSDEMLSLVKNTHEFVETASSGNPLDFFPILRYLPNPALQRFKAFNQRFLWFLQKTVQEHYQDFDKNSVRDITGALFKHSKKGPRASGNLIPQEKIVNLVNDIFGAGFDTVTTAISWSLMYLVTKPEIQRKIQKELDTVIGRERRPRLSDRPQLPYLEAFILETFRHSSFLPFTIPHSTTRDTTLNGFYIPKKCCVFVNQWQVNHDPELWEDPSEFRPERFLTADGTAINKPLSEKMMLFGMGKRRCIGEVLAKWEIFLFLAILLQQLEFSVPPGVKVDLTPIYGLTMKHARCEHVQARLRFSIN

[19] = target: Cytochrome P450 2D6 (Homo sapiens, UniProt P10635); assay: Inhibition of CYP2D6 in human liver microsomes using isoform-specific probe substrates in presence of NADPH-generating system by LC-MS analysis; format: ADME
[20] = target: Cytochrome P450 3A4 (Homo sapiens, UniProt P08684); assay: Inhibition of CYP3A4 in human liver microsomes using isoform-specific probe substrates in presence of NADPH-generating system by LC-MS analysis; format: ADME; details: read-out: IC50
[21] = AUC (0 to infinity) in Swiss mouse at 20 mg/kg, po administered as single dose via gavage measured over 24 hrs by LC-MS analysis; format: ADME, organism-based; set-up: route oral, dose 20 mg/kg, time >24; details: in vivo
[22] = Unbound Cmax in Swiss mouse at 20 mg/kg, po administered as single dose via gavage measured over 24 hrs by LC-MS analysis; format: ADME, organism-based; details: in vivo
[23] = Unbound AUC (0 to infinity) in Swiss mouse at 20 mg/kg, po administered as single dose via gavage measured over 24 hrs by LC-MS analysis; format: ADME, organism-based; details: in vivo
[24] = tested on: Plasmodium falciparum; assay: Antiplasmodial activity against Plasmodium falciparum 3D7 infected in po dosed NSG mouse assessed as reduction in parasitemia administered once daily for 4 consecutive days starting from day 3 post-infection and measured 24 hrs post last dose by flow cytometric analysis; format: functional; details: 3D7, po, 96 h, time 4 day
[25] = tested on: Plasmodium falciparum; assay: Antimalarial activity against chloroquine, quinine, mefloquine, pyrimethamine, cycloguanil and sulfadoxine resistant Plasmodium falciparum Dd2; format: functional, organism-based
[26] = tested on: Plasmodium falciparum; assay: Antimalarial activity against pyrimethamine resistant Plasmodium falciparum HB3; format: functional, organism-based
[27] = tested on: Plasmodium falciparum; assay: Antimalarial activity against Plasmodium falciparum D6; format: functional, organism-based
[28] = tested on: Plasmodium falciparum; assay: Antimalarial activity against chloroquine, pyrimethamine and cycloguanil resistant Plasmodium falciparum K1; format: functional, organism-based
[29] = tested on: Plasmodium falciparum; assay: Antimalarial activity against atovaquone, chloroquine, cycloguanil and pyrimethamine resistant Plasmodium falciparum TM90C2B; format: functional, organism-based
[30] = Protein binding in Swiss mouse plasma at 20 mg/kg, po administered as single dose via gavage measured over 24 hrs by LC-MS analysis; format: ADME, organism-based; details: read-out: PPB (converted)
[31] = target: Dihydroorotate dehydrogenase (quinone), mitochondrial (Mus musculus, UniProt O35435)
[32] = Solubility of compound in FaSSIF at pH 6.5 measured after 5 to 6 hrs by HPLC-UV based analysis

Dihydroorotate dehydrogenase (quinone), mitochondrial (Mus musculus, UniProt O35435), sequence (O35435 whole entry): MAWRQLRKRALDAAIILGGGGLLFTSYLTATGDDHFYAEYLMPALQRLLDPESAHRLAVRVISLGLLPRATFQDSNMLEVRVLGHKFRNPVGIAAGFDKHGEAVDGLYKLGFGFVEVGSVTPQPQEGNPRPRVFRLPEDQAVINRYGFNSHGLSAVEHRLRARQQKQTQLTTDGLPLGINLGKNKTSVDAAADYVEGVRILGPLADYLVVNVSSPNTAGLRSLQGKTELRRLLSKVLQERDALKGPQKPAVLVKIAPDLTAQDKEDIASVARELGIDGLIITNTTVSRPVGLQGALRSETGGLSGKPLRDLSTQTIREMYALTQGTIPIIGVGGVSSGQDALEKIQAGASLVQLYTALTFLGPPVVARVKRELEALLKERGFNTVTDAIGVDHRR
Dihydroorotate dehydrogenase (quinone), mitochondrial (Rattus norvegicus, UniProt Q63707), sequence (Q63707 whole entry): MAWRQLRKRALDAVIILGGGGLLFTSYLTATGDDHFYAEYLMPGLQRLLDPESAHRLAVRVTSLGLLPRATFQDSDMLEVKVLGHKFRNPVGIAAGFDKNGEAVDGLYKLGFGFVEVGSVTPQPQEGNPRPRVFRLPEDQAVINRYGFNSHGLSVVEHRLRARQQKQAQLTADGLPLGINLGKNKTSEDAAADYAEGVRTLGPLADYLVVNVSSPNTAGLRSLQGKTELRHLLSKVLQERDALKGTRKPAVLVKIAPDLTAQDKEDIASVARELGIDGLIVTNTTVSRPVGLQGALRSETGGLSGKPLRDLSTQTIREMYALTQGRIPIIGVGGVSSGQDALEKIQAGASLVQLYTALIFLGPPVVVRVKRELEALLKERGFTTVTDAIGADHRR
Cytochrome P450 2D6, sequence (P10635 whole entry, canonical isoform): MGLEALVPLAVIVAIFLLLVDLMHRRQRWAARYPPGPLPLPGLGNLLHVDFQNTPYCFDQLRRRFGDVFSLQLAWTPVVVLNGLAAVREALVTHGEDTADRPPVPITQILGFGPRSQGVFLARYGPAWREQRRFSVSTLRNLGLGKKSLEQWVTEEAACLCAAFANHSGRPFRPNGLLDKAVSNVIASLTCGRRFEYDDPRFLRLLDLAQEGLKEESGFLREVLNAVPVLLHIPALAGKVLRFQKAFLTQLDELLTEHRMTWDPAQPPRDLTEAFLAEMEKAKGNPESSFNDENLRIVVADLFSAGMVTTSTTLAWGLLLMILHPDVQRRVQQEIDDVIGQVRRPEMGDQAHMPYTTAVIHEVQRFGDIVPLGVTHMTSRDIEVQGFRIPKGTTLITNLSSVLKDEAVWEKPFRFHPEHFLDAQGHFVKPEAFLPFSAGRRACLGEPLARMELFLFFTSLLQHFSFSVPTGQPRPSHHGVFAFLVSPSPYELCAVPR
Cytochrome P450 3A4, sequence (P08684 whole entry, canonical isoform): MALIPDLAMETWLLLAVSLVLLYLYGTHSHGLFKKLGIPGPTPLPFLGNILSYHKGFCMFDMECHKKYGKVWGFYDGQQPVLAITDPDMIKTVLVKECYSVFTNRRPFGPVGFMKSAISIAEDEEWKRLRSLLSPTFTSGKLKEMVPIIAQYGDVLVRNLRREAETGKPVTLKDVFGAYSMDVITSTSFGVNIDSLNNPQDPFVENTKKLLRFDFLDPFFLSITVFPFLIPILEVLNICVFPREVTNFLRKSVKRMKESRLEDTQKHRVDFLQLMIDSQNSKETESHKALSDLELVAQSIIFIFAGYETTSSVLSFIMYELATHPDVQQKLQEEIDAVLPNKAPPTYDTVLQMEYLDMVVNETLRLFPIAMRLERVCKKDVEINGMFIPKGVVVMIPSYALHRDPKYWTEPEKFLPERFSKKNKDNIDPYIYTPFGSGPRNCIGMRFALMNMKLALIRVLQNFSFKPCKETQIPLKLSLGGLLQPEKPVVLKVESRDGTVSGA
Dihydroorotate dehydrogenase (quinone), mitochondrial (Homo sapiens, UniProt Q02127), sequence (Q02127 whole entry): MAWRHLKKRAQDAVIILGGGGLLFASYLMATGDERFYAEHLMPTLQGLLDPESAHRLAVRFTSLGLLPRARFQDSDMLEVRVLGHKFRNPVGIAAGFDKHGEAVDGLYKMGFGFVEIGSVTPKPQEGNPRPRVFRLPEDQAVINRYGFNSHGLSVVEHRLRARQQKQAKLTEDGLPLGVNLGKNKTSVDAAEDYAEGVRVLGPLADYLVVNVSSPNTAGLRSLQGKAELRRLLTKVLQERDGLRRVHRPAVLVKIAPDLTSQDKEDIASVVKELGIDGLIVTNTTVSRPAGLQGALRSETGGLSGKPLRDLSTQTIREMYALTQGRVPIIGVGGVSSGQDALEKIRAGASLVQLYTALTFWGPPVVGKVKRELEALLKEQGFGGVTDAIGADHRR
Cytochrome P450 2C9, sequence (P11712 whole entry, canonical isoform): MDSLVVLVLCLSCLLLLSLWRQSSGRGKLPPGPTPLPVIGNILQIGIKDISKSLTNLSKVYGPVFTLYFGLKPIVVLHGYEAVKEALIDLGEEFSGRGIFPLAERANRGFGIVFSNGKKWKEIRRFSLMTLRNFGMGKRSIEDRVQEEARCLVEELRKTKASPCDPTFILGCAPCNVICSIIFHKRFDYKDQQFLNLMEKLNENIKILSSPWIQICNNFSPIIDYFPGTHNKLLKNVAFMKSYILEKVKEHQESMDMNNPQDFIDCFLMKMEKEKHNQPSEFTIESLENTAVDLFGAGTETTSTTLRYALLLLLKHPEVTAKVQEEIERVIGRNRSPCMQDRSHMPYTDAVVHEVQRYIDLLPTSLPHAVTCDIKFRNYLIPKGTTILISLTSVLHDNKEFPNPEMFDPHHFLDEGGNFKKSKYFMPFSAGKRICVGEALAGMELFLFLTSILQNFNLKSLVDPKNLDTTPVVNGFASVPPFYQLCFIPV
Cytochrome P450 2C19, sequence (P33261 whole entry, canonical isoform): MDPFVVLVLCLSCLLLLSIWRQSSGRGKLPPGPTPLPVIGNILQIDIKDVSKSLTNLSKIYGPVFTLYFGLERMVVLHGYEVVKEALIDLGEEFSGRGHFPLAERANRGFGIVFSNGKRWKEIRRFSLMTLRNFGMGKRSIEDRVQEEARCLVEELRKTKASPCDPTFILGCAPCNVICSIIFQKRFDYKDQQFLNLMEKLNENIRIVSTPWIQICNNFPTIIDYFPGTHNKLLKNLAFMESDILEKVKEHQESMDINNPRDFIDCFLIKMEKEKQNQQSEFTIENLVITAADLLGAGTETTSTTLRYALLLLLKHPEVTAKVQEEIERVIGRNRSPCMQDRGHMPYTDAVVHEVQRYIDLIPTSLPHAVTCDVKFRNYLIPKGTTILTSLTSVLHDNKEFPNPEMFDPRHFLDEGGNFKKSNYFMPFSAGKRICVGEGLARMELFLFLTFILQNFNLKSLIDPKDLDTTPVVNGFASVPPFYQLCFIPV

SMILES | IC50 [1] [µM] | IC50 [2] [µM] | IC50 [3] [µM] | IC50 [4] [µM] | IC50 [5] [µM] | EC50 [6] [µM] | IC50 [7] [µM] | IC50 [8] [µM] | logD [9] | solubility kinetic at 0.5 h [10] [µg/mL] | fraction unbound [11] | fraction unbound [12] | fraction unbound [13] | microsomal intrinsic clearance [14] [µL/min] | Intrinsic clearance in rat liver microsomes (uL/min/mg protein) [15] [µL/min] | intrinsic clearance [16] [µL/min] | solubility [17] [µg/mL] | IC50 [18] [µM] | IC50 [19] [µM] | IC50 [20] [µM] | further results
Cc1cc(N[C@H]2CCc3ccc(Cl)cc3C2)n2nc(C(C)(F)F)nc2n1 | > 20 | 2.1 | 0.0063 | 0.01 | > 100 | 0.0012 | > 100 | > 100 | 3.9 | 3.1 (≈ 8.2 µM) | 0.033 | 0.036 | 0.026 | < 7 | 38 | 31 | 105 (≈ 278 µM) | > 20 | 2.7 | > 20 | AUC [21]: 22.7 µM·h; fCmax [22]: 0.13 µM; fAUC [23]: 0.59 µM·h; ED90 [24]: 19 mg/kg; Activity [25]: Active; Activity [26]: Active; Activity [27]: Active; Activity [28]: Active; Activity [29]: Active; fraction unbound at 24 h [30]: 0.026; IC50 [31]: > 100 µM; solubility [32]: 12 µg/mL (≈ 31.8 µM)
Cc1cc(NC2Cc3cc(F)c(F)cc3C2)n2nc(C(C)(F)F)nc2n1 | > 20 | 18.5 | 0.052 | 0.37 | > 100 | 0.04 | > 100 | > 100 | 3.4 | 6.3 (≈ 17.2 µM) | 0.066 | 0.058 | 0.047 | < 7 | < 7 | 21 | 180 (≈ 493 µM) | > 20 | 5.9 | > 20 | AUC [21]: 169 µM·h; fCmax [22]: 1.4 µM; fAUC [23]: 7.9 µM·h; ED90 [24]: 35 mg/kg; Activity [25]: Active; Activity [26]: Active; Activity [27]: Active; Activity [28]: Active; Activity [29]: Active; fraction unbound at 24 h [30]: 0.047; IC50 [31]: > 100 µM; solubility [32]: 15 µg/mL (≈ 41.1 µM)
